Data on two molecules can be found in ChEMBL document CHEMBL4420076, “Amylin and calcitonin receptor agonist” (2017).

Series [1] concerns the target T1, Amylin receptor AMY3; CALCR/RAMP3 (Homo sapiens, UniProt O60896+P30988).
T1 sequence (P30988 whole entry): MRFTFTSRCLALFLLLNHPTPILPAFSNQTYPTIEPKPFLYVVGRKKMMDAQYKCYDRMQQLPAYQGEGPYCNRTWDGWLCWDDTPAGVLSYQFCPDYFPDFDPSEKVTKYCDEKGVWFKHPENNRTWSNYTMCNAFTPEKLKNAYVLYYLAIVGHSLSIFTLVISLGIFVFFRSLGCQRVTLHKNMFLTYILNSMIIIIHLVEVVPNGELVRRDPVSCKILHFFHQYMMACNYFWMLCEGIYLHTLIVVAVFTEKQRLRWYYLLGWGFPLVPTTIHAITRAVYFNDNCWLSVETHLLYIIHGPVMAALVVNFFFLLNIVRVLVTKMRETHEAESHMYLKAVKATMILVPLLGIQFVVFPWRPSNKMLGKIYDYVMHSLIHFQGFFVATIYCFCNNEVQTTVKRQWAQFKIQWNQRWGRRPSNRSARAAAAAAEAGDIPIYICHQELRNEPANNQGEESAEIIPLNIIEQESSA
T1 sequence (O60896 whole entry): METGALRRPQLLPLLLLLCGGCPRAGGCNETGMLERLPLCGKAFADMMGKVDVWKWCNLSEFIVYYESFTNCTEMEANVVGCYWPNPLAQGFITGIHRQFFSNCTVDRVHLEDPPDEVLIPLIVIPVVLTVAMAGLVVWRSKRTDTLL
As to the kind of experiment: Displacement of [125I]-labeled rat amylin from human amylin receptor expressed in BHK tkts13 whole cells co-expressing RAMP3 incubated for 60 mins by scintillation proximity assay. In kind it is cell-based.

Series [2] in a line: Solubility in 100 mM bistrispropane buffer at pH 7.0 incubated for 18 hrs by UPLC analysis. It is filed as physicochemical.
Series [3] concerns the target T2, Calcitonin receptor (Homo sapiens, UniProt P30988).
T2 sequence (P30988 whole entry): T1 sequence (P30988 whole entry)
As to the kind of experiment: Agonist activity at human calcitonin receptor expressed in BHK570 cells assessed as increase in intracellular cAMP concentration incubated for 3 hrs in absence of albumin by CRE luciferase reporter gene assay. In kind it is functional, cell-based.

The target of series [4] is T2, Calcitonin receptor. As to the kind of experiment: Displacement of [125I]-labeled human calcitonin from human calcitonin receptor expressed in BHK tkts13 whole cells incubated for 60 mins by scintillation proximity assay. It is filed as cell-based. In general terms: Loss of bound radioactivity is the signal in a displacement assay; it reports binding, not function.

A short description of series [5]: Solubility in 100 mM bistrispropane buffer at pH 7.5 incubated for 18 hrs by UPLC analysis. In kind it is physicochemical.
Series [6] is described as follows: Solubility in 100 mM glycylglycine buffer at pH 4.0 incubated for 18 hrs by UPLC analysis. It is filed as physicochemical.
Series [7] can be described thus: Solubility in 100 mM bistrispropane buffer at pH 6.5 incubated for 18 hrs by UPLC analysis. In kind it is physicochemical.
The nature of series [8]: Solubility in 100 mM bistrispropane buffer at pH 8.0 incubated for 18 hrs by UPLC analysis. It is filed as physicochemical.
A short description of series [9]: Solubility in 100 mM bistrispropane buffer at pH 6.0 incubated for 18 hrs by UPLC analysis. In kind it is physicochemical.
A short description of series [10]: Solubility in 100 mM glycylglycine buffer at pH 5.0 incubated for 18 hrs by UPLC analysis. It is filed as physicochemical.
Series [11] deals with T1, Amylin receptor AMY3; CALCR/RAMP3. As to the kind of experiment: Agonist activity at human amylin receptor expressed in BHK570 cells co-expressing RAMP3 assessed as increase in intracellular cAMP concentration incubated for 3 hrs in absence of albumin by CRE luciferase reporter gene assay. In kind it is functional, cell-based. (In general: Reporter assays use an easily measured gene product as a stand-in for the process of interest.)

Series [12] can be described thus: Solubility in 100 mM glycylglycine buffer at pH 3.0 incubated for 18 hrs by UPLC analysis. In kind it is physicochemical.

Numbered stars: 1 amine (or outer) side, 2 acyl side, 3 side chain; on linkers, the order of the positions; unused ones are H or OH. Peptide text beside a SMILES is read from it. * marks the point of attachment. C20 diacid = O=C(O)CCCCCCCCCCCCCCCCCCC(=O)*; C18 diacid = O=C(O)CCCCCCCCCCCCCCCCC(=O)*; γGlu = O=C(O)[C@H](CCC(=O)[*:2])N[*:1]

The term IC50 denotes the concentration that gives 50% inhibition. As a reminder, the solubility is the dissolved amount per volume that the medium holds. A lower solubility goes with little dissolved substance. The term EC50 denotes the concentration giving half of the maximal effect. Regarding `CC(C)C[C@H](NC(=O)[C@H](C)NC(=O)[C@H](C)NC(=O)[C@@H](NC(=O)[C@H](CO)NC(=O)[C@H](CC(C)C)NC(=O)[C@H](CCC(=O)O)NC(=O)[C@H](CO)NC(=O)[C@H](C)NC(=O)[C@H](CCC(=O)O)NC(=O)CCCCCCCCCCCCCCCCC(=O)O)[C@@H](C)O)C(=O)NCC(=O)N[C@@H](CCCNC(=N)N)C(=O)N[C@@H](CC(C)C)C(=O)N[C@@H](CO)C(=O)N[C@@H](C)C(=O)N[C@@H](CCC(=O)O)C(=O)N[C@@H](CC(C)C)C(=O)N[C@@H](Cc1cnc[nH]1)C(=O)N[C@@H](CCC(=O)O)C(=O)N[C@@H](CC(C)C)C(=O)N[C@@H](C)C(=O)N[C@H](C(=O)N[C@@H](CC(C)C)C(=O)N1CCC[C@H]1C(=O)N[C@@H](CCCNC(=N)N)C(=O)N[C@H](C(=O)N[C@@H](CCC(=O)O)C(=O)N[C@H](C(=O)NCC(=O)N1CCC[C@H]1C(=O)N[C@@H](CCC(=O)O)C(=O)N[C@@H](Cc1cnc[nH]1)C(=O)N1CCC[C@H]1C(N)=O)[C@@H](C)O)[C@@H](C)O)[C@@H](C)O` ({C18 diacid}-EASELSTAALGRLSAELHELATLPRTETGPEHP-NH2), the IC50 in [1] was 1.27 nM; at Calcitonin receptor [4], 1.17 nM. In addition, the solubility at 18 h in [2], in series [5], in [6], in series [7], in series [8] and in series [9] was not below 200 µM each time. The solubility at 18 h in series [10] and in [12] was not below 200 µM in each case. In addition, the EC50 at Calcitonin receptor [3] is 0.017 nM; in series [11] it was 0.02 nM.

As for `CC(C)C[C@H](NC(=O)[C@H](CCCNC(=N)N)NC(=O)CNC(=O)[C@H](CC(C)C)NC(=O)[C@@H](NC(=O)[C@H](C)NC(=O)[C@@H](NC(=O)[C@H](CO)NC(=O)[C@H](CC(C)C)NC(=O)[C@H](CCC(N)=O)NC(=O)[C@H](CO)NC(=O)[C@H](C)NC(=O)[C@H](CCC(=O)O)NC(=O)CC[C@H](NC(=O)CCCCCCCCCCCCCCCCCCC(=O)O)C(=O)O)[C@@H](C)O)C(C)C)C(=O)N[C@@H](CO)C(=O)N[C@@H](CCC(N)=O)C(=O)N[C@@H](CCC(=O)O)C(=O)N[C@@H](CC(C)C)C(=O)N[C@@H](Cc1cnc[nH]1)C(=O)N[C@@H](CCC(=O)O)C(=O)N[C@@H](CC(C)C)C(=O)N[C@@H](CCC(N)=O)C(=O)N[C@H](C(=O)N[C@@H](Cc1ccc(O)cc1)C(=O)N1CCC[C@H]1C(=O)N[C@@H](CCCNC(=N)N)C(=O)N[C@H](C(=O)NCC(=O)N[C@H](C(=O)NCC(=O)N[C@@H](CO)C(=O)NCC(=O)N[C@H](C(=O)N[C@@H](Cc1ccc(O)cc1)C(N)=O)[C@@H](C)O)[C@@H](C)O)[C@@H](C)O)[C@@H](C)O` ({C20 diacid-γGlu}-EASQLSTAVLGRLSQELHELQTYPRTGTGSGTY-NH2), the results for the IC50 (in [1]; on Calcitonin receptor [4]) were 0.338 nM and 0.796 nM, respectively. Also, the EC50 on Calcitonin receptor [3] was 0.056 nM; in series [11] it was 0.066 nM.
